Values of other authors, collected in US20110195946A1, “HIGH SOLID D[…]” (priority 2008, published 2011).

Assays:
[1] = acute inhalation toxicity
[2] = acute oral mammalian toxicity

## [O-][n+]1ccccc1[S][Zn][S]c1cccc[n+]1[O-] [zinc pyrithione, bis(2-pyridylthio)zinc 1,1′ dioxide]
[1]
  LC50 (4 h): 1.03 µg/mL

## N#Cc1c(-c2ccc(Cl)cc2)[nH]c(C(F)(F)F)c1Br [Tralopyril, 4-bromo-2-(4-chlorophenyl)-5-(trifluoromethyl)-1H-pyrrole-3-carbonitrile]
[2]
  LD50: 28.7 mg/kg
